In publication PMC10797614, “MYC-Targeting Inhibitors Generated from a Stereodiversified Bicyclic Peptide Library” (Journal of the American Chemical Society, 2024):

test: tandem ring-opening/ring-closing metathesis (ROM-RCM) of side-chain norbornene with two Glu allyl esters to bicyclic peptide; Hoveyda-Grubbs 2nd gen (M720), two portions (library procedure); settings: the molecule shown is the open-chain precursor; 28-membered ring; 1,2-dichloroethane; resin; 70.0 °C

`C=CCOC(=O)CC[C@H](NC(=O)[C@@H]1CCCN1C(=O)[C@H](CC(C)C)NC(=O)[C@H](C)NC(=O)[C@H](CCCCNC(=O)[C@@H]1C[C@H]2C=C[C@@H]1C2)NC(=O)[C@@H](NC(=O)[C@@H](NC(=O)[C@H](Cc1ccccc1)NC(=O)[C@H](CCC(=O)OCC=C)NC(=O)OCC1c2ccccc2-c2ccccc21)[C@@H](C)CC)C(C)C)C(N)=O` and `C=CCOC(=O)CC[C@H](NC(=O)[C@@H]1CCCN1C(=O)[C@H](CC(C)C)NC(=O)[C@H](C)NC(=O)[C@H](CCCCNC(=O)[C@H]1C[C@H]2C=C[C@@H]1C2)NC(=O)[C@@H](NC(=O)[C@@H](NC(=O)[C@H](Cc1ccccc1)NC(=O)[C@H](CCC(=O)OCC=C)NC(=O)OCC1c2ccccc2-c2ccccc21)[C@@H](C)CC)C(C)C)C(N)=O` are the same in ring closure, conversion by HPLC (% (semiquantitative, mass spectrometry)): 2 for the first, 2 for the second.

First: C=CCOC(=O)CC[C@H](NC(=O)[C@H](CC(C)C)NC(=O)[C@H](C)NC(=O)[C@H](CCCCNC(=O)[C@@H]1C[C@H]2C=C[C@@H]1C2)NC(=O)[C@@H](NC(=O)[C@@H](NC(=O)[C@H](Cc1ccccc1)NC(=O)[C@H](CCC(=O)OCC=C)NC(=O)OCC1c2ccccc2-c2ccccc21)[C@@H](C)CC)C(C)C)C(N)=O
Second: C=CCOC(=O)CC[C@H](NC(=O)[C@H](CC(C)C)NC(=O)[C@H](C)NC(=O)[C@H](CCCCNC(=O)[C@H]1C[C@H]2C=C[C@@H]1C2)NC(=O)[C@@H](NC(=O)[C@@H](NC(=O)[C@H](Cc1ccccc1)NC(=O)[C@H](CCC(=O)OCC=C)NC(=O)OCC1c2ccccc2-c2ccccc21)[C@@H](C)CC)C(C)C)C(N)=O
The ring closure, conversion by HPLC (% (semiquantitative, mass spectrometry)) of the first is lower: 18 for the first, 65 for the second.

First: C=CCOC(=O)CC[C@H](NC(=O)[C@H](CC(C)C)NC(=O)[C@@H]1CCCN1C(=O)[C@H](C)NC(=O)[C@H](CCCCNC(=O)[C@@H]1C[C@H]2C=C[C@@H]1C2)NC(=O)[C@@H](NC(=O)[C@@H](NC(=O)[C@H](Cc1ccccc1)NC(=O)[C@H](CCC(=O)OCC=C)NC(=O)OCC1c2ccccc2-c2ccccc21)[C@@H](C)CC)C(C)C)C(N)=O
Second: C=CCOC(=O)CC[C@H](NC(=O)[C@H](CC(C)C)NC(=O)[C@@H]1CCCN1C(=O)[C@H](C)NC(=O)[C@H](CCCCNC(=O)[C@H]1C[C@H]2C=C[C@@H]1C2)NC(=O)[C@@H](NC(=O)[C@@H](NC(=O)[C@H](Cc1ccccc1)NC(=O)[C@H](CCC(=O)OCC=C)NC(=O)OCC1c2ccccc2-c2ccccc21)[C@@H](C)CC)C(C)C)C(N)=O
The ring closure, conversion by HPLC (% (semiquantitative, mass spectrometry)) of the first is lower: 10 for the first, 45 for the second.

Going from `C=CCOC(=O)CC[C@H](NC(=O)[C@H](CC(C)C)NC(=O)[C@H](C)NC(=O)[C@@H]1CCCN1C(=O)[C@H](CCCCNC(=O)[C@@H]1C[C@H]2C=C[C@@H]1C2)NC(=O)[C@@H](NC(=O)[C@@H](NC(=O)[C@H](Cc1ccccc1)NC(=O)[C@H](CCC(=O)OCC=C)NC(=O)OCC1c2ccccc2-c2ccccc21)[C@@H](C)CC)C(C)C)C(N)=O` to `C=CCOC(=O)CC[C@H](NC(=O)[C@H](CC(C)C)NC(=O)[C@H](C)NC(=O)[C@@H]1CCCN1C(=O)[C@H](CCCCNC(=O)[C@H]1C[C@H]2C=C[C@@H]1C2)NC(=O)[C@@H](NC(=O)[C@@H](NC(=O)[C@H](Cc1ccccc1)NC(=O)[C@H](CCC(=O)OCC=C)NC(=O)OCC1c2ccccc2-c2ccccc21)[C@@H](C)CC)C(C)C)C(N)=O`, the ring closure, conversion by HPLC (% (semiquantitative, mass spectrometry)) rises from 14 to 47.

same assay, conditions: the molecule shown is the open-chain precursor; 31-membered ring; 1,2-dichloroethane; resin; 70.0 °C

Compared with `C=CCOC(=O)CC[C@H](NC(=O)[C@H](CC(C)C)NC(=O)[C@H](C)NC(=O)[C@H](CCCCNC(=O)[C@H]1C[C@H]2C=C[C@@H]1C2)NC(=O)[C@@H](NC(=O)[C@@H](NC(=O)[C@H](Cc1ccccc1)NC(=O)[C@@H]1CCCN1C(=O)[C@H](CCC(=O)OCC=C)NC(=O)OCC1c2ccccc2-c2ccccc21)[C@@H](C)CC)C(C)C)C(N)=O`, `C=CCOC(=O)CC[C@H](NC(=O)[C@H](CC(C)C)NC(=O)[C@H](C)NC(=O)[C@H](CCCCNC(=O)[C@@H]1C[C@H]2C=C[C@@H]1C2)NC(=O)[C@@H](NC(=O)[C@@H](NC(=O)[C@H](Cc1ccccc1)NC(=O)[C@@H]1CCCN1C(=O)[C@H](CCC(=O)OCC=C)NC(=O)OCC1c2ccccc2-c2ccccc21)[C@@H](C)CC)C(C)C)C(N)=O` is lower in ring closure, conversion by HPLC (% (semiquantitative, mass spectrometry)): 55 for the first, 22 for the second.

First: C=CCOC(=O)CC[C@H](NC(=O)[C@H](CC(C)C)NC(=O)[C@H](C)NC(=O)[C@H](CCCCNC(=O)[C@H]1C[C@H]2C=C[C@@H]1C2)NC(=O)[C@@H](NC(=O)[C@@H]1CCCN1C(=O)[C@@H](NC(=O)[C@H](Cc1ccccc1)NC(=O)[C@H](CCC(=O)OCC=C)NC(=O)OCC1c2ccccc2-c2ccccc21)[C@@H](C)CC)C(C)C)C(N)=O
Second: C=CCOC(=O)CC[C@H](NC(=O)[C@H](CC(C)C)NC(=O)[C@H](C)NC(=O)[C@H](CCCCNC(=O)[C@@H]1C[C@H]2C=C[C@@H]1C2)NC(=O)[C@@H](NC(=O)[C@@H]1CCCN1C(=O)[C@@H](NC(=O)[C@H](Cc1ccccc1)NC(=O)[C@H](CCC(=O)OCC=C)NC(=O)OCC1c2ccccc2-c2ccccc21)[C@@H](C)CC)C(C)C)C(N)=O
The ring closure, conversion by HPLC (% (semiquantitative, mass spectrometry)) of the first is higher: 80 for the first, 14 for the second.

Compared with `C=CCOC(=O)CC[C@H](NC(=O)[C@H](CC(C)C)NC(=O)[C@H](C)NC(=O)[C@H](CCCCNC(=O)[C@H]1C[C@H]2C=C[C@@H]1C2)NC(=O)[C@@H](NC(=O)[C@@H](NC(=O)[C@@H]1CCCN1C(=O)[C@H](Cc1ccccc1)NC(=O)[C@H](CCC(=O)OCC=C)NC(=O)OCC1c2ccccc2-c2ccccc21)[C@@H](C)CC)C(C)C)C(N)=O`, `C=CCOC(=O)CC[C@H](NC(=O)[C@H](CC(C)C)NC(=O)[C@H](C)NC(=O)[C@H](CCCCNC(=O)[C@@H]1C[C@H]2C=C[C@@H]1C2)NC(=O)[C@@H](NC(=O)[C@@H](NC(=O)[C@@H]1CCCN1C(=O)[C@H](Cc1ccccc1)NC(=O)[C@H](CCC(=O)OCC=C)NC(=O)OCC1c2ccccc2-c2ccccc21)[C@@H](C)CC)C(C)C)C(N)=O` is lower in ring closure, conversion by HPLC (% (semiquantitative, mass spectrometry)): 79 for the first, 74 for the second.

Going from `C=CCOC(=O)CC[C@H](NC(=O)[C@H](CC(C)C)NC(=O)[C@H](C)NC(=O)[C@H](CCCCNC(=O)[C@H]1C[C@H]2C=C[C@@H]1C2)NC(=O)[C@@H]1CCCN1C(=O)[C@@H](NC(=O)[C@@H](NC(=O)[C@H](Cc1ccccc1)NC(=O)[C@H](CCC(=O)OCC=C)NC(=O)OCC1c2ccccc2-c2ccccc21)[C@@H](C)CC)C(C)C)C(N)=O` to `C=CCOC(=O)CC[C@H](NC(=O)[C@H](CC(C)C)NC(=O)[C@H](C)NC(=O)[C@H](CCCCNC(=O)[C@@H]1C[C@H]2C=C[C@@H]1C2)NC(=O)[C@@H]1CCCN1C(=O)[C@@H](NC(=O)[C@@H](NC(=O)[C@H](Cc1ccccc1)NC(=O)[C@H](CCC(=O)OCC=C)NC(=O)OCC1c2ccccc2-c2ccccc21)[C@@H](C)CC)C(C)C)C(N)=O`, the ring closure, conversion by HPLC (% (semiquantitative, mass spectrometry)) falls from 34 to 25.
